Test results: patent publication US20250326748A1, “COMPOUNDS AND METHODS FOR MODULATING SPLICING” (REMIX THERAPEUTICS INC., priority 2022, published 2025)
Where a name gives a salt, the structure may show the parent alone. Read-outs that look alike come from different tables or passages of the source.

How the values were obtained:
[1] = tested on: SMN2 mRNA; assay: Splicing RT-qPCR panel, SMN2 canonical junction (CJ) mRNA; format: cell-based, human; details: Homo sapiens, read-out: SMN2 CJ (decrease in CJ mRNA levels, IC50)
Description: (§1) Compounds described herein were used to modulate RNA transcript abundance in cells. The expression of a target mRNA was measured by detecting the formation of an exon-exon junction in the canonical transcript (CJ). A compound mediated exon-inclusion event was detected by observing an increase in formation of a new junction with an alternative exon (AJ). Real-time qPCR assays were used to detect these splicing switches and interrogate the potency of various compounds towards different target genes. A high-throughput real time quantitative PCR (RT-qPCR) assay was developed to measure these two isoforms of the mRNA (CJ and AJ) for exemplary genes, such as HTT, SMN2, and MYB, together with a control housekeeping gene, GAPDH or GUSB or PPIA, used for normalization. Briefly, the A673 or K562 cell line was treated with various compounds described herein (e.g., compounds of Formula (D). After treatment, the levels of the HTT, MYB, or SMN2 mRNA targets were determined from each sample of cell lysate by cDNA synthesis followed by qPCR.
(§2) The A673 cell line was cultured in DMEM with 10% FBS. Cells were diluted with full growth media and plated in a 96-well plate (15,000 cells in 100 ul media per well). The plate was incubated at 37° C. with 5% CO2 for 24 hours to allow cells to adhere. An 11-point 3-fold serial dilution of the compounds was made in DMSO then diluted in media in an intermediate plate. Compounds were transferred from the intermediate plate to the cell plate with the top dose at a final concentration of 10 uM in the well. Final DMSO concentration was kept at or below 0.25%. The cell plate was returned to the incubator at 37° C. with 5% CO2 for an additional 24 hours.
(§3) The K562 cell line was cultured in IMDM with 10% FBS. For K562, cells were diluted with full growth media and plated in either a 96-well plate (50,000 cells in 50 uL media per well) or a 384-well plate (8,000-40,000 cells in 45 uL media per well). An 11-point 3-fold serial dilution of the compounds were made in DMSO then diluted in media in an intermediate plate. Compound was transferred from the intermediate plate to the cell plate with the top dose at a final concentration of 10 uM in the well. Final DMSO concentration was kept at or below 0.25%. Final volume was 100 uL for 96-well plate and 50 uL for 384-well plate. The cell plate was then placed in an incubator at 37° C. with 5% CO2 for 24 hours.
(§4) The cells were then gently washed with 50 uL-100 uL cold PBS before proceeding to addition of lysis buffer. 30 uL-50 μL of room temperature lysis buffer with DNAse I (and optionally RNAsin) was added to each well. Cells were shaken/mixed thoroughly at room temperature for 5-10 minutes for lysis to take place and then 3 uL-5 μL of room temperature stop solution was added and wells were shaken/mixed again. After 2-5 minutes, the cell lysate plate was transferred to ice for RT-qPCR reaction setup. The lysates could also be frozen at −80° C. for later use.
(§5) In some cases, a direct lysis buffer was used. An appropriate volume of 3× lysis buffer (10 mM Tris, 150 mM NaCl, 1.5%-2.5% Igepal and 0.1-1 U/uL RNAsin, pH 7.4) was directly added to either K562 or A673 cells in media and mixed by pipetting 3 times. The plates were then incubated at room temperature with shaking/rocking for 20-50 minutes to allow for lysis to take place. After this time, the cell lysate plate was transferred to ice to set up for the RT-qPCR reactions. The lysates could also be frozen at −80° C. for later use.
(§6) To set up 10 uL RT-qPCR reactions, cell lysates were transferred to 384-well qPCR plates containing the master mix according to the table below. The plates were sealed, gently vortexed, and spun down before the run. The volumes were adjusted accordingly in some instances where the reaction was carried in 20 μL. The table below summarizes the components of the RT-qPCR reactions:
(§7) The RT-qPCR reaction was performed using a QuantStudio (ThermoFisher) under the following fast cycling conditions. […]

[2] = tested on: HTT mRNA; assay: Splicing RT-qPCR assay, HTT canonical (CJ) and alternative (AJ) junction mRNA; format: cell-based, human; details: Homo sapiens; for IC50: canonical junction mRNA; for AC50: alternative junction mRNA, read-out: HTT AJ (AC50, increase in AJ mRNA)
Description: as §1
(§8) • Cells-to-CT 1-step kit: ThermoFisher A25602, Cells-to-CT lysis reagent: ThermoFisher 4391851C, TaqMan™ Fast Virus 1-Step Master Mix: ThermoFisher 4444436 • GAPDH: VIC-PL, ThermoFisher 4326317E (Assay: Hs99999905_m1)—used for K562/suspension cell lines • GUSB: VIC-PL, ThermoFisher 4326320E (Assay: Hs99999908_m1)—used for K562/suspension cell lines • PPIA: VIC-PL, ThermoFisher 4326316E (Assay: Hs99999904_m1)—used for A673/adherent cell lines
as §2, §3, §4
as §5, with “use. […]” for “use.”

[3] = tested on: MYB mRNA; assay: Splicing RT-qPCR assay, MYB canonical (CJ) and alternative (AJ) junction mRNA; format: cell-based, human; details: Homo sapiens; for IC50: canonical junction mRNA; for AC50: alternative junction mRNA, read-out: MYB AJ (AC50, increase in AJ mRNA)
Description: as §1, §8, §2, §3, §4
as §5, with “use. […]” for “use.”

[4] = tested on: Target C mRNA; assay: Splicing RT-qPCR panel, Target C canonical junction (CJ) mRNA; format: cell-based, human; details: Homo sapiens, read-out: Target C CJ (decrease in CJ mRNA levels, IC50)
Description: as §1, §2, §3, §4, §5, §6, §7

[5] = tested on: K562 cells; assay: Cell viability, Cell Titer Glo 2.0 assay, K562; details: 72 hours
Description: Compounds described herein were screened for toxicity in K562 (human chronic myelogenous leukemia) and SH-SY5Y (human neuroblastoma) cells using a Cell Titer Glo 2.0 assay.
• Promega CellTiter-Glo® 2.0 Cell Viability Assay (cat #G9241) • Corning 384-well TC-treated microplates (cat #3570)
Cells were plated at 500 cells/well (K562 cells) in 45 μL of IMDM supplemented with 10% FBS in a 384-well opaque plate. Wells containing only medium were used as a blank control. Test compounds (e.g., compounds of Formula (I) or (II)) were first serially diluted in DMSO then diluted 1:100 with IMDM+10% FBS. The final concentration of DMSO was 0.1% in each well. The cells were incubated for 72 hours at 37° C. and 5% CO2 before assaying with Cell Titer Glo 2.0 reagent.

[6] = 24 h, RT-qPCR, A673 or K562 cells, 24 hours treatment, read-out: HTT CJ (IC50, decrease in CJ mRNA)
[7] = qPCR panel, read-out: HTT CJ (decrease in CJ mRNA levels, IC50)
[8] = RT-qPCR, A673 or K562 cells, 24 hours treatment
[9] = qPCR panel, read-out: MYB CJ (decrease in CJ mRNA levels, IC50)
[10] = RT-qPCR, A673 or K562 cells, 24 hours treatment, read-out: MYB CJ (IC50, decrease in CJ mRNA)

Structure (SMILES) | IC50 [1] | IC50 [2, 6] | IC50 [2, 7] | AC50 [2, 8] | IC50 [3, 9] | AC50 [3, 8] | IC50 [3, 10] | IC50 [4] | Effect on Cell Viability, K562 [5]
Cc1c(O)c(-c2ccc3nc(N4CCNC(C)C4)cnc3n2)cc2cn(C)nc12 (centres unmarked) [Cmpd 196] | < 100 nM | 100 to 1000 nM | 100 to 1000 nM | 1000 to 10000 nM | 100 to 1000 nM | < 100 nM | 100 to 1000 nM | 1000 to 10000 nM | 
CNC1CCN(c2cnc3nc(-c4cc5cn(C)nc5c(C)c4O)ccc3c2)C1 (centres unmarked) [Compound 113, 2,7-dimethyl-5-{6-[3-(methylamino)pyrrolidin-1-yl]-1,8-naphthyridin-2-yl}indazol-6-ol] | < 100 nM | 100 to 1000 nM | 100 to 1000 nM | 100 to 1000 nM | < 100 nM | < 100 nM | < 100 nM | 100 to 1000 nM | 
COc1cc(-c2cc3cn(C)nc3c(C)c2O)nc2ncc(N3CCNCC3)cc12 [Compound 152, 5-(4-methoxy-6-(piperazin-1-yl)-1,8-naphthyridin-2-yl)-2,7-dimethyl-2H-indazol-6-ol 2,2,2-trifluoroacetate] | < 100 nM | 100 to 1000 nM | 100 to 1000 nM | 1000 to 10000 nM | 100 to 1000 nM | 100 to 1000 nM | 100 to 1000 nM | 1000 to 10000 nM | B (100-1000 nM)
Cn1cc2cc(-c3cnc4cc(C5CCNCC5)cc(F)c4n3)c(O)c(F)c2n1 [Compound 164, 7-fluoro-5-[8-fluoro-6-(piperidin-4-yl)quinoxalin-2-yl]-2-methylindazol-6-ol] | < 100 nM | < 100 nM | < 100 nM | < 100 nM | < 100 nM | < 100 nM | < 100 nM | < 100 nM | 
CN(C)C1CCN(c2ccc3nc(-c4cc5cn(C)nc5c(F)c4O)cnc3c2)CC1 [Compound 360, 5-{6-[4-(dimethylamino)piperidin-1-yl]quinoxalin-2-yl}-7-fluoro-2-methylindazol-6-ol] | < 100 nM | 100 to 1000 nM | 100 to 1000 nM | > 10000 nM | < 100 nM | 100 to 1000 nM | < 100 nM | 1000 to 10000 nM | B (100-1000 nM)
Cc1cn2cc(-c3ccc4cc(N(C)[C@@H]5CCNC5)cnc4n3)cc(F)c2n1 [Compound 361, 7-{8-fluoro-2-methylimidazo[1,2-a]pyridin-6-yl}-N-methyl-N-[(3R)-pyrrolidin-3-yl]-1,8-naphthyridin-3-amine hydrochloride] | > 10000 nM | > 10000 nM | > 10000 nM | > 10000 nM | > 10000 nM | > 10000 nM | > 10000 nM | > 10000 nM | C (1000-9999 nM)
C[C@@H]1CN(c2cnc3nc(-c4cc(F)c5nn(C)cc5c4)ccc3c2Cl)C[C@H](C)N1 [Compound 391] |  | > 10000 nM | > 10000 nM | 1000 to 10000 nM | 100 to 1000 nM | 100 to 1000 nM | 100 to 1000 nM | 1000 to 10000 nM | B (100-1000 nM)
Cc1cn2nc(-c3ccc4c(Cl)c(N5C[C@@H](C)N[C@@H](C)C5)cnc4n3)cc(C)c2n1 [Compound 392] |  | 1000 to 10000 nM | 1000 to 10000 nM | 1000 to 10000 nM | 100 to 1000 nM | 100 to 1000 nM | 100 to 1000 nM | 1000 to 10000 nM | B (100-1000 nM)
Cc1c(N2C[C@H](C)N[C@@H](C)C2)cnc2nc(-c3cc4cn(C)nc4c(C)c3O)ccc12 [Compound 395, 5-{6-[(3S,5S)-3,5-dimethylpiperazin-1-yl]-5-methyl-1,8-naphthyridin-2-yl}-2,7-dimethylindazol-6-ol] |  | 100 to 1000 nM | 100 to 1000 nM | 1000 to 10000 nM | < 100 nM | 100 to 1000 nM | < 100 nM | 1000 to 10000 nM | B (100-1000 nM)
Cc1c(N2C[C@@H](C)N[C@@H](C)C2)cnc2nc(-c3cc4cn(C)nc4cc3O)ccc12 [Compound 487] | < 100 nM | > 10000 nM | > 10000 nM | > 10000 nM | 1000 to 10000 nM | 1000 to 10000 nM | 1000 to 10000 nM |  | 
C[C@@H]1CN(c2cnc3nc(-c4cc5cn(C)nc5cc4O)ccc3c2Cl)C[C@H](C)N1 [Compound 492] | < 100 nM | 1000 to 10000 nM | 1000 to 10000 nM | 1000 to 10000 nM | < 100 nM | < 100 nM | < 100 nM |  | 
Cn1cc2cc(-c3cc(Cl)c4cc(N5CC[C@H](NC(C)(C)C)C5)cnc4n3)c(O)c(F)c2n1 [Compound 497] | < 100 nM | < 100 nM | < 100 nM | 100 to 1000 nM | < 100 nM | < 100 nM | < 100 nM |  | 
Cn1cc2cc(-c3cc(Cl)c4cc(N5CC[C@@H](NC(C)(C)C)C5)cnc4n3)c(O)c(F)c2n1 [Compound 498] | < 100 nM | > 10000 nM | > 10000 nM | > 10000 nM | 100 to 1000 nM | 100 to 1000 nM | 100 to 1000 nM |  | 
Cn1cc2cc(-c3ccc4c(Cl)c(N5CCNC6(CC6)C5)cnc4n3)c(O)cc2n1 [Compound 500, 5-[5-chloro-6-(4,7-diazaspiro[2.5]octan-7-yl)-1,8-naphthyridin-2-yl]-2-methyl-indazol-6-ol] | < 100 nM | 1000 to 10000 nM | 1000 to 10000 nM | 1000 to 10000 nM | 100 to 1000 nM | 100 to 1000 nM | 100 to 1000 nM |  | 
